{"source": "patent US10227344B2", "about": "“CK2 inhibitors, compositions and methods thereof” (Polaris Pharmaceuticals, Inc., priority 2016, dated 2019)", "assay_type_in_all_cases": "cell-based", "key": {"BT-474": {"tested_on": "BT-474", "assay": "Cancer cell panel, cell viability (resazurin): Breast, BT-474", "settings": "BT-474 (Breast), 72 hours; labelled drug combined with Example 3", "description": "(§1) Cells were plated in 96-well plates and treated for 72 hours with a serially diluted CK2 inhibitor or anti-cancer drug or their combination. The suspension cell lines were treated right after plating, while the adherent cells were allowed to attach overnight prior to the start of the treatment.\n(§2) Cell viability was determined by adding resazurin to cell cultures and measuring fluorescence with a plate reader. Relative cell viability was calculated by dividing the cell viability signal from a test sample by that of a non-treated control. […] Bliss Independence and Highest Single Agent models were used to determine if there is synergy, additivity or antagonism between the CK2 inhibitor and an anti-cancer drug."}, "ZR-75-1": {"tested_on": "ZR-75-1", "assay": "Cancer cell panel, cell viability (resazurin): Breast, ZR-75-1", "settings": "ZR-75-1 (Breast), 72 hours; labelled drug combined with Example 3"}, "T47D": {"tested_on": "T47D", "assay": "Cancer cell panel, cell viability (resazurin): Breast, T47D", "settings": "72 hours, labelled drug combined with Example 3", "description": "as §1, §2"}, "MCF7": {"tested_on": "MCF7", "assay": "Cancer cell panel, cell viability (resazurin): Breast, MCF7", "settings": "72 hours, labelled drug combined with Example 3"}, "786-O": {"tested_on": "786-O", "assay": "Cancer cell panel, cell viability (resazurin): Renal, 786-O", "settings": "786-O (Renal), 72 hours; labelled drug combined with Example 3"}, "ACHN": {"tested_on": "ACHN", "assay": "Cancer cell panel, cell viability (resazurin): Renal, ACHN", "settings": "72 hours, labelled drug combined with Example 3", "description": "as §1, §2"}, "Caki-1": {"tested_on": "Caki-1", "assay": "Cancer cell panel, cell viability (resazurin): Renal, Caki-1", "settings": "Caki-1 (Renal), 72 hours; labelled drug combined with Example 3", "description": "as §1, §2"}, "Caki-2": {"tested_on": "Caki-2", "assay": "Cancer cell panel, cell viability (resazurin): Renal, Caki-2", "settings": "Caki-2 (Renal), 72 hours; labelled drug combined with Example 3", "description": "as §1, §2"}, "A375": {"tested_on": "A375", "assay": "Cancer cell panel, cell viability (resazurin): Melanoma, A375", "settings": "72 hours, labelled drug combined with Example 3", "description": "as §1, §2"}, "SK-MEL-3": {"tested_on": "SK-MEL-3", "assay": "Cancer cell panel, cell viability (resazurin): Melanoma, SK-MEL-3", "settings": "SK-MEL-3 (Melanoma), 72 hours; labelled drug combined with Example 3"}, "SK-MEL-24": {"tested_on": "SK-MEL-24", "assay": "Cancer cell panel, cell viability (resazurin): Melanoma, SK-MEL-24", "settings": "SK-MEL-24 (Melanoma), 72 hours; labelled drug combined with Example 3", "description": "as §1, §2"}, "WM-115": {"tested_on": "WM-115", "assay": "Cancer cell panel, cell viability (resazurin): Melanoma, WM-115", "settings": "WM-115 (Melanoma), 72 hours; labelled drug combined with Example 3"}, "MeWO": {"tested_on": "MeWO", "assay": "Cancer cell panel, cell viability (resazurin): Melanoma, MeWO", "settings": "72 hours, labelled drug combined with Example 3"}, "RPMI8226": {"tested_on": "RPMI8226", "assay": "Cancer cell panel, cell viability (resazurin): multiple myeloma, RPMI8226", "settings": "72 hours, labelled drug combined with Example 3"}, "U87MG": {"tested_on": "U87MG", "assay": "Cancer cell panel, cell viability (resazurin): Glioblastoma, U87MG", "settings": "72 hours, labelled drug combined with Example 3"}, "Ramos": {"tested_on": "Ramos", "assay": "Cancer cell panel, cell viability (resazurin): Burkitt's Lymphoma, Ramos", "settings": "72 hours, labelled drug combined with Example 3", "description": "as §1, §2"}, "Raji": {"tested_on": "Raji", "assay": "Cancer cell panel, cell viability (resazurin): Burkitt's Lymphoma, Raji", "settings": "72 hours, labelled drug combined with Example 3"}, "Daudi": {"tested_on": "Daudi", "assay": "Cancer cell panel, cell viability (resazurin): Burkitt's Lymphoma, Daudi", "settings": "72 hours, labelled drug combined with Example 3", "description": "as §1, §2"}, "NAMALWA": {"tested_on": "NAMALWA", "assay": "Cancer cell panel, cell viability (resazurin): Burkitt's Lymphoma, NAMALWA", "settings": "72 hours, labelled drug combined with Example 3"}, "K562": {"tested_on": "K562", "assay": "Cancer cell panel, cell viability (resazurin): Leukemia, K562", "settings": "72 hours, labelled drug combined with Example 3"}, "HL60": {"tested_on": "HL60", "assay": "Cancer cell panel, cell viability (resazurin): Leukemia, HL60", "settings": "72 hours, labelled drug combined with Example 3"}, "EOL-1": {"tested_on": "EOL-1", "assay": "Cancer cell panel, cell viability (resazurin): Leukemia, EOL-1", "settings": "EOL-1 (Leukemia), 72 hours; labelled drug combined with Example 3", "description": "as §1, §2"}, "MOLT4": {"tested_on": "MOLT4", "assay": "Cancer cell panel, cell viability (resazurin): Leukemia, MOLT4", "settings": "72 hours, labelled drug combined with Example 3", "description": "as §1, §2"}}, "data": [{"compound": "Nc1ccn([C@@H]2O[C@H](CO)[C@@H](O)C2(F)F)c(=O)n1", "note": "[Gemcitabine, gemcitabine]", "values": [{"measurement": "synergy, additivity or antagonism of the combination of Example 3 with the anti-cancer drug", "setting": "BT-474", "result": "+ (Additive relative to each agent alone (CI = 0.9-1 by Bliss Independence Model and <0.9 by Highest Single Agent Model))"}, {"measurement": "synergy, additivity or antagonism of the combination of Example 3 with the anti-cancer drug", "setting": "ZR-75-1", "result": "+ (Additive relative to each agent alone (CI = 0.9-1 by Bliss Independence Model and <0.9 by Highest Single Agent Model))"}, {"measurement": "synergy, additivity or antagonism of the combination of Example 3 with the anti-cancer drug", "setting": "T47D", "result": "+ (Additive relative to each agent alone (CI = 0.9-1 by Bliss Independence Model and <0.9 by Highest Single Agent Model))"}, {"measurement": "synergy, additivity or antagonism of the combination of Example 3 with the anti-cancer drug", "setting": "MCF7", "result": "+ (Additive relative to each agent alone (CI = 0.9-1 by Bliss Independence Model and <0.9 by Highest Single Agent Model))"}, {"measurement": "synergy, additivity or antagonism of the combination of Example 3 with the anti-cancer drug", "setting": "786-O", "result": "+ + + (Synergy relative to each agent alone (CI = 0.4-0.74 by Bliss Independence Model))"}, {"measurement": "synergy, additivity or antagonism of the combination of Example 3 with the anti-cancer drug", "setting": "ACHN", "result": "+ (Additive relative to each agent alone (CI = 0.9-1 by Bliss Independence Model and <0.9 by Highest Single Agent Model))"}, {"measurement": "synergy, additivity or antagonism of the combination of Example 3 with the anti-cancer drug", "setting": "Caki-1", "result": "+ (Additive relative to each agent alone (CI = 0.9-1 by Bliss Independence Model and <0.9 by Highest Single Agent Model))"}, {"measurement": "synergy, additivity or antagonism of the combination of Example 3 with the anti-cancer drug", "setting": "Caki-2", "result": "+ (Additive relative to each agent alone (CI = 0.9-1 by Bliss Independence Model and <0.9 by Highest Single Agent Model))"}, {"measurement": "synergy, additivity or antagonism of the combination of Example 3 with the anti-cancer drug", "setting": "A375", "result": "+ (Additive relative to each agent alone (CI = 0.9-1 by Bliss Independence Model and <0.9 by Highest Single Agent Model))"}, {"measurement": "synergy, additivity or antagonism of the combination of Example 3 with the anti-cancer drug", "setting": "SK-MEL-3", "result": "+ (Additive relative to each agent alone (CI = 0.9-1 by Bliss Independence Model and <0.9 by Highest Single Agent Model))"}, {"measurement": "synergy, additivity or antagonism of the combination of Example 3 with the anti-cancer drug", "setting": "SK-MEL-24", "result": "+ (Additive relative to each agent alone (CI = 0.9-1 by Bliss Independence Model and <0.9 by Highest Single Agent Model))"}, {"measurement": "synergy, additivity or antagonism of the combination of Example 3 with the anti-cancer drug", "setting": "WM-115", "result": "+ (Additive relative to each agent alone (CI = 0.9-1 by Bliss Independence Model and <0.9 by Highest Single Agent Model))"}, {"measurement": "synergy, additivity or antagonism of the combination of Example 3 with the anti-cancer drug", "setting": "MeWO", "result": "+ (Additive relative to each agent alone (CI = 0.9-1 by Bliss Independence Model and <0.9 by Highest Single Agent Model))"}, {"measurement": "synergy, additivity or antagonism of the combination of Example 3 with the anti-cancer drug", "setting": "RPMI8226", "result": "+ + (Slight synergy relative to each agent alone (CI = 0.75-0.9 by Bliss Independence Model))"}, {"measurement": "synergy, additivity or antagonism of the combination of Example 3 with the anti-cancer drug", "setting": "U87MG", "result": "+ (Additive relative to each agent alone (CI = 0.9-1 by Bliss Independence Model and <0.9 by Highest Single Agent Model))"}, {"measurement": "synergy, additivity or antagonism of the combination of Example 3 with the anti-cancer drug", "setting": "Ramos", "result": "+ + (Slight synergy relative to each agent alone (CI = 0.75-0.9 by Bliss Independence Model))"}, {"measurement": "synergy, additivity or antagonism of the combination of Example 3 with the anti-cancer drug", "setting": "Raji", "result": "+ + (Slight synergy relative to each agent alone (CI = 0.75-0.9 by Bliss Independence Model))"}, {"measurement": "synergy, additivity or antagonism of the combination of Example 3 with the anti-cancer drug", "setting": "Daudi", "result": "+ + (Slight synergy relative to each agent alone (CI = 0.75-0.9 by Bliss Independence Model))"}, {"measurement": "synergy, additivity or antagonism of the combination of Example 3 with the anti-cancer drug", "setting": "NAMALWA", "result": "+ + (Slight synergy relative to each agent alone (CI = 0.75-0.9 by Bliss Independence Model))"}, {"measurement": "synergy, additivity or antagonism of the combination of Example 3 with the anti-cancer drug", "setting": "K562", "result": "+ (Additive relative to each agent alone (CI = 0.9-1 by Bliss Independence Model and <0.9 by Highest Single Agent Model))"}, {"measurement": "synergy, additivity or antagonism of the combination of Example 3 with the anti-cancer drug", "setting": "HL60", "result": "+ + (Slight synergy relative to each agent alone (CI = 0.75-0.9 by Bliss Independence Model))"}, {"measurement": "synergy, additivity or antagonism of the combination of Example 3 with the anti-cancer drug", "setting": "EOL-1", "result": "+ + + + (Strong synergy relative to each agent alone (CI < 0.4 by Bliss Independence Model))"}, {"measurement": "synergy, additivity or antagonism of the combination of Example 3 with the anti-cancer drug", "setting": "MOLT4", "result": "+ + + (Synergy relative to each agent alone (CI = 0.4-0.74 by Bliss Independence Model))"}]}]}
